Measured values from patent US9163018B2, “Method of treatment of age-related macular degeneration (AMD)” (Prana Biotechnology Limited, priority 2006, dated 2015).

Columns and labels:
[1] = system: Aβ deposits; conditions: 9 weeks; for Tg Mice % difference from control in Amyloid plaque abundance / Tg Mice % difference from control in insoluble brain amyloid burden / Tg Mice % difference from control in soluble brain amyloid burden: daily oral gavage 30 mg/kg, 13-14 months old transgenic mice
[2] = target: T1, Abeta:Zn (25:50 μM) Synthetic Aggregations (Homo sapiens, UniProt P05067); test: Disaggregation of Abeta:Zn synthetic aggregates (ThT fluorescence); format: biochemical; conditions: for Disaggregation % Aggregate reduction at 5 μM: 5 μM test compound; for EC50: Abeta:Zn 25:50 μM aggregates
T1 construct: PB Compound Mediated Dissolution of Aggregated Abeta 1-42; purchased Keck Laboratory, Yale University School of Medicine
Summary of the method: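 ThT signal (excitation 450 nm, emission 480 nm) measured after compounds at final 1, 5, 10, 25 and 50 μM acted 2 h at 37 degrees on preformed aggregates. Those aggregates came from 24 h rotating incubation of 25 μM Abeta1-42, 50 μM ZnCl2 and 50 μM ThT in PBS pH 6.6.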

[3] = target: T2, Aβ 1-42 (Homo sapiens, UniProt P05067); test: Fluorometric H2O2 assay (inhibition of Abeta H2O2 production); format: biochemical; conditions: concentration required to inhibit 50% of Abeta H2O2 production; read-out: H2O2 IC50
T2 construct: The reaction solutions contained Aβ 1-42 at concentrations
Summary of the method: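 Reactions in PBS pH 7.4 at 37 C for 60 min, containing Aβ, copper and test compound. H2O2 output read as fluorescence of HRP-coupled deacetylated DCF. Fluorescence converted to H2O2 concentration via H2O2 standards.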

[4] = system: M17 human neuroblastoma cells; test: Cytotoxicity, M17 human neuroblastoma cells; format: cell-based; conditions: for Cytotox (% viable) M17 cells at 1 μM: 1 μM test compound; for Cytotox (% viable) M17 cells at 10 μM: 10 μM test compound
Description: Assay 3. MTS Assay for Cell Viability
Cell viability is determined using the MTS assay. Culture medium is replaced with fresh neurobasal medium plus B27 supplements minus antioxidants. 1/10th volume MTS solution (Cell Titre 96 Aqueous One, Promega Corporation) and incubated at 37° C., 2 hrs. 200 microliter aliquots are measured with a spectrophotometer at 560 nm.

[5] = system: Abeta in extract of post-mortem human AD brain tissue; test: BAS: human brain amyloid solubilization assay; format: biochemical; conditions: max effect across the concentration range, referenced to baseline PBS
Summary of the method: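 Plaque-bearing post-mortem AD cortex homogenised in ice-cold PBS pH 7.4; soluble Aβ in 100,000×g supernatant, insoluble Aβ from resuspended pellet. Fractions run on Tris-Tricine SDS-PAGE, immunoblotted with W02, densitometry against synthetic Aβ40 standards.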

[6] = Toxicity, visual observations in mice; conditions: duration and visual observations
[7] = system: primary cortical neuronal cultured cells; test: Test compound cytotoxicity, MTS assay, primary cortical neuronal cultures; format: cell-based, mouse; conditions: for Cytotox (% viable) Neuronal cells at 1 μM: 1 μM test compound; for Cytotox (% viable) Neuronal cells at 10 μM: 10 μM test compound
Summary of the method: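 Primary cortical neurons were cultured five days in Neurobasal/B27, then exposed on day six to compounds (from 2.5 mM DMSO stocks) in medium minus antioxidants, in triplicate for 4 days at 37° C. Viability was measured by MTS, 2 h at 37° C, absorbance at 560 nm.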

[8] = Mice plasma concentration after oral dose; format: in vivo; conditions: for Mice plasma concentration: 30 min to 4 h after single or repeat oral dose of 30 mg/kg; for Mice plasma concentration at 10 mg/kg: oral dose 10 mg/kg
[9] = system: dityrosine oligomerization; test: CuTy: inhibition of dityrosine oligomerization; format: biochemical; conditions: referenced to in-house standard (set as 100% inhibition)

T1 sequence (P05067 672-713 limits assumed): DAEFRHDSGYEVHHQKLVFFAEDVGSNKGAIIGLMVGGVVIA
T2 sequence (P05067 672-713 limits assumed): as above

| Compound | Tg Mice % difference from control in Amyloid plaque abundance [1] | Tg Mice % difference from control in insoluble brain amyloid burden [1] | Tg Mice % difference from control in soluble brain amyloid burden [1] | Disaggregation % Aggregate reduction at 5 μM [2] [%] | EC50 [2] [µM] | IC50 [3] [nM] | Cytotox (% viable) M17 cells at 1 μM [4] [%] | Cytotox (% viable) M17 cells at 10 μM [4] [%] | BAS max effect [5] [%] | Toxicity at 30 mg/kg [6] | Cytotox (% viable) Neuronal cells at 1 μM [7] [%] | Cytotox (% viable) Neuronal cells at 10 μM [7] [%] | Mice plasma concentration [8] | CuTy % inhibition of dityrosine oligomerization [9] | Toxicity at 10 mg/kg [6] | Mice plasma concentration at 10 mg/kg [8] | Tg Mice Amyloid plaque abundance at 3 mg/kg ([1]; daily oral gavage 3 mg/kg) | Tg Mice soluble brain amyloid burden at 3 mg/kg ([1]; daily oral gavage 3 mg/kg) | Tg Mice % difference in insoluble brain amyloid burden at 3 mg/kg ([1]; daily oral gavage 3 mg/kg, ex-outlier) [%] |
| --- | --- | --- | --- | --- | --- | --- | --- | --- | --- | --- | --- | --- | --- | --- | --- | --- | --- | --- | --- |
| CCNCc1ccc2c(Cl)cc(Cl)c(O)c2n1.Cl [PB 1051] | −39% | −21% | slight increase | 22.3 | > 20 | 380 | 78.3 | 44 | 270 | 10 days, none | 87 | 56 | Up to 403 ng/ mL ng/mL | – | – | – | – | – | – |
| Oc1c(Cl)cc(Cl)c2ccc(-c3ccccn3)nc12 [PB 1052] | Decrease insol, Decrease sol, Decrease plaque | Decrease insol, Decrease sol, Decrease plaque | Decrease insol, Decrease sol, Decrease plaque | 62.8 | 3.3 | 640 | – | – | 212 | – | 55 | 31 | – | – | – | – | – | – | – |
| Oc1c(C2CC2)ncc2cccnc12 [PB 1073] | – | – | – | 50 | 4.7 | 520 | – | – | – | 6 days, none | 100 | 98 | Up to 350 ng/ mL in mice ng/mL | – | – | – | – | – | – |
| O=c1c2c(Cl)cc(Cl)c(O)c2ncn1CCN1CCCC1 [PB 1075] | −23% | Increase | decrease | 0 | > 20 | – | 103.6 | 101.3 | – | 14 days, 1 of 4 death | 104 | 91 | Up to 520 ng/ mL in mice ng/mL | – | – | – | – | – | – |
| O=c1c2c(Cl)cc(Cl)c(O)c2ncn1Cc1cccc(Cn2cnc3c(O)c(Cl)cc(Cl)c3c2=O)n1 [PB 1101] | – | – | – | 45 | – | 4100 | 94.9 | 26.8 | – | 10 days, none | 89 | 67 | – | 10% inhibition | – | – | – | – | – |
| Br.CC(C)n1cnc2c(O)c(Cl)cc(Cl)c2c1=O [PB 1108] | – | – | – | 46.5 | > 20 | – | 94.3 | 74.5 | – | 10 days, none | 104 | 71 | Up to 383 ng/ mL ng/mL | – | – | – | – | – | – |
| CCCn1cnc2c(O)c(I)ccc2c1=O [PB 1119] | – | – | – | 51.5 | 2.72 | 280 | – | – | – | 10 days, none | – | – | Up to 1096 ng/ mL ng/mL | – | – | – | – | – | – |
| O=c1c2ccc(I)c(O)c2ncn1Cc1ccccn1 [PB 1122] | – | – | – | 62.4 | 0.66 | 520 | 97.5 | 79.5 | – | 10 days, none | – | – | Up to 1538 ng/ mL ng/mL | – | – | – | – | – | – |
| O=c1c2c(Cl)cc(I)c(O)c2ncn1CC1CC1 [PB 1140] | – | – | – | 64 | 3.5 | 360 | 92.4 | 98.2 | – | – | – | – | – | – | At 10 mg/kg 10 days, none | At 10 mg/kg: Up to 2315 ng/ ml ng/mL | – | – | – |
| Br.CN(C)Cc1nc2c(O)c(Cl)cc(Cl)c2c(=O)[nH]1 [PB 1147] | – | – | – | 12.5 | > 20 | – | 94.7 | 100.3 | – | 10 days, none | – | – | Up tp 642.6 ng/ mL ng/mL | CuTy: 100% inhibition | – | – | – | – | – |
| CCCc1cnc2c(O)c(I)ccn2c1=O [PB 1151] | – | – | – | 57 | 5.6 | 330 | 80.8 | 47.6 | – | – | – | – | Up to 11742 ng/ ml ng/mL | – | – | – | No change | No change | −24 |
| CC(C)Cn1cnc2c(O)c(I)ccc2c1=O [PB 1152] | – | – | – | 56 | > 20 | 310 | 95.7 | 71.2 | – | – | – | – | – | – | At 10 mg/kg 10 days, none | At 10 mg/kg: Up to 309 ng/ml ng/mL | – | – | – |
| CCCn1cnc2c(O)c(I)ccc2c1=S [PB 1165] | Decrease | No change | No change | 52 | 4.7 | 890 | 96.7 | 107.1 | – | 10 days, none | – | – | Up tp 1593 ng/ ml ng/mL | – | – | – | – | – | – |
| O=C1NC(=O)c2cc(-n3cnc4c(O)c(Cl)cc(Cl)c4c3=O)ccc21 [PB 1247] | – | – | – | – | – | 560 | 101.2 | 110.8 | – | 10 days, none | – | – | – | CuTy: 150% inhibition | – | – | – | – | – |
| CCc1c(O)c(=O)ccn1CC.Cl [PB 1270] | – | – | – | – | – | > 10000 | – | – | – | – | – | – | – | CuTy: 80% inhibition | – | – | – | – | – |
| CC(C)Cn1c(CN(C)C)nc2c(O)c(Cl)cc(Cl)c2c1=O.Cl [PB 1271] | – | – | – | – | – | 170 | 104.4 | 61.5 | – | – | – | – | – | CuTy: 50% inhibition | – | – | – | – | – |
